Data as given in patent US20230148214A1, “INDAZOLES AND AZAINDAZOLES AS LRRK2 INHIBITORS” (ESCAPE Bio, Inc., priority 2020, published 2023).

What was measured:
LRRK2 G2019S = biological target: T1, LRRK2 G2019S (Homo sapiens, UniProt Q5S007, G2019S); experiment: LRRK2 Kinase Activity Assay (LanthaScreen TR-FRET), G2019S; assay type: biochemical; details: recombinant G2019S-LRRK2, 25 μM ATP, 400 nM LRRKtide, 60 min; class symbols
T1 construct: purchased Life Technologies PV4881
Method in brief: (§1)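 Recombinant wild-type or G2019S LRRK2 incubated with fluorescein-labeled LRRKtide (ERM-based) peptide, ATP and serially diluted compound for 60 min at room temperature.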

LRRK2 WT = biological target: T2, LRRK2 WT (Homo sapiens, UniProt Q5S007); experiment: LRRK2 Kinase Activity Assay (LanthaScreen TR-FRET), wild type; assay type: biochemical; details: recombinant wild type LRRK2, 25 μM ATP, 400 nM LRRKtide, 60 min; class symbols
T2 construct: purchased Life Technologies PR8604B
T2 sequence (Q5S007 whole entry): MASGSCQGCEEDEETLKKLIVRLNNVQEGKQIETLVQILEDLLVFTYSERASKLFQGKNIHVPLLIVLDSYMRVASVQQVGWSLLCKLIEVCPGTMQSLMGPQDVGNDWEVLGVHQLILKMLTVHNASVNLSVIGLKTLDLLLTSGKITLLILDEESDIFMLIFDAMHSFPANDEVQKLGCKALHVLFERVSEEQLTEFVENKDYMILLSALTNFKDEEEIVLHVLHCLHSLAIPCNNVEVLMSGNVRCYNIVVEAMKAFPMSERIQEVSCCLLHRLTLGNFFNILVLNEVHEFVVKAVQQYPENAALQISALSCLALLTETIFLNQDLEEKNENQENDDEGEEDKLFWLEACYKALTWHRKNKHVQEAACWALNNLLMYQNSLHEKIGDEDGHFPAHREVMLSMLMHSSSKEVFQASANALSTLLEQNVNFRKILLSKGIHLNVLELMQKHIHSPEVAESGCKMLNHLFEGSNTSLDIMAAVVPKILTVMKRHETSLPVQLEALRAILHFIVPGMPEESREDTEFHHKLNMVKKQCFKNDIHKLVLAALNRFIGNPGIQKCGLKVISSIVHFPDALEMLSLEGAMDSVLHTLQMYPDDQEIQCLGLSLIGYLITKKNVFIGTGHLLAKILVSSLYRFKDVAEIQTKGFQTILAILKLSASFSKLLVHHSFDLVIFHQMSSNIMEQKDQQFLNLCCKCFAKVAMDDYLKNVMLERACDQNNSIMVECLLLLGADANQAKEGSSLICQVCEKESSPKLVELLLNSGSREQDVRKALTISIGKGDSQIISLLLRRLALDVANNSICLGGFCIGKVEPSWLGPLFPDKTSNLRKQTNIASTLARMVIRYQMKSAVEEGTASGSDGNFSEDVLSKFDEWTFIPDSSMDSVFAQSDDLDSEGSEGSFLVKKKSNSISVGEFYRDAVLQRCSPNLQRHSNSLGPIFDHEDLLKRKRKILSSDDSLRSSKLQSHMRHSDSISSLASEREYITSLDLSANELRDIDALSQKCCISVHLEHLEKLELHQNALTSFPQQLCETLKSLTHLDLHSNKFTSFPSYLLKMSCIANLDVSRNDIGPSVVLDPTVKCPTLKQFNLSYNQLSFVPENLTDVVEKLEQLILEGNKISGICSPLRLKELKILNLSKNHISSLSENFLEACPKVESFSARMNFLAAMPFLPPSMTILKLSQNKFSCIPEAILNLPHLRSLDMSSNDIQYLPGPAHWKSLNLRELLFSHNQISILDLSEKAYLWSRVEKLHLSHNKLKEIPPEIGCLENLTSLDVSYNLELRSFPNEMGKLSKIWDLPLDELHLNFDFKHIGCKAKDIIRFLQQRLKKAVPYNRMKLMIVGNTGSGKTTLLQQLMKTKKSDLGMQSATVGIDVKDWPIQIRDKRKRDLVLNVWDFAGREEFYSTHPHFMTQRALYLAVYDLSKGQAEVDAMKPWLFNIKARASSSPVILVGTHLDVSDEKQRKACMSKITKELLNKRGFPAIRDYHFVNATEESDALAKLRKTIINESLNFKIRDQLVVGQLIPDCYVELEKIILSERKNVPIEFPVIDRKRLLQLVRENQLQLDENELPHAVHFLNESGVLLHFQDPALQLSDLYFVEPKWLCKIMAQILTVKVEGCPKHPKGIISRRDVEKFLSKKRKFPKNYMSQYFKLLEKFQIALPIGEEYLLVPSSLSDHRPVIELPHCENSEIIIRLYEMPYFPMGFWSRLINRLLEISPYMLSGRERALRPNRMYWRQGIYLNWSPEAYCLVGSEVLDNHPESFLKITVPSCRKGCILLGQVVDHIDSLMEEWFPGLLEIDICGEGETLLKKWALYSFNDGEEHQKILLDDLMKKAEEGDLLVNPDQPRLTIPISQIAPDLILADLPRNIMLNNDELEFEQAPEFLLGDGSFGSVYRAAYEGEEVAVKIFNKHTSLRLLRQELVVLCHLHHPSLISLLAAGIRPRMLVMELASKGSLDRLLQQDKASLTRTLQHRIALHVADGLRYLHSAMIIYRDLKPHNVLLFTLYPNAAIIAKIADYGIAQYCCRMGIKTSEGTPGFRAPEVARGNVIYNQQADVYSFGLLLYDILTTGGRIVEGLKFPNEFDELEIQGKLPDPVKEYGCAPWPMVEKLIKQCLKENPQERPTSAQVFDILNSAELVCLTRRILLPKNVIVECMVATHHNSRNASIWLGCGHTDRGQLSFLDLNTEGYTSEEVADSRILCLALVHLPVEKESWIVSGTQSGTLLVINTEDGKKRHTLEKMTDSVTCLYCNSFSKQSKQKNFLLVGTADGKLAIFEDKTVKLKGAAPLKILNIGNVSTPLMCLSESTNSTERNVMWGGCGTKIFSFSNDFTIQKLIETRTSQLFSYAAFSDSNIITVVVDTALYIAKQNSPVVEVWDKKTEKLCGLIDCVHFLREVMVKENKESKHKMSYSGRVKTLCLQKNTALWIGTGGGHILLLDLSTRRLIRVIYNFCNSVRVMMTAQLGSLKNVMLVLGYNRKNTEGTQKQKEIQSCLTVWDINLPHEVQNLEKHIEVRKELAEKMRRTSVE
Method in brief: as §1

T1 sequence (Q5S007 whole entry G2019S): as the sequence (Q5S007 whole entry) above, with G2019S counted along it

| Compound | IC50 (LRRK2 G2019S) | IC50 (LRRK2 WT) |
| --- | --- | --- |
| N#Cc1ccc2c(c1)CCC[C@@H]2Nc1ccc2[nH]nc(-c3ccc(Br)cc3)c2c1 (single isomer, unassigned) [Example 95, 5-((3-(4-Bromophenyl)-1H-indazol-5-yl)amino)-5,6,7,8-tetrahydronaphthalene-2-carbonitrile] | < 100 nM | 1000 to 10000 nM |
| N#Cc1ccc2c(c1)CCC[C@@H]2Nc1ccc2[nH]nc(-c3cnn4c3CCC4)c2c1 (single isomer, unassigned) [Example 96, 5-((3-(5,6-Dihydro-4H-pyrrolo[1,2-b]pyrazol-3-yl)-1H-indazol-5-yl)amino)-5,6,7,8-tetrahydronaphthalene-2-carbonitrile] | < 100 nM | < 100 nM |
| Cn1ccc(-c2n[nH]c3ccc(N[C@H]4CCCc5cc(C#N)ccc54)cc23)cc1=O (single isomer, unassigned) [Example 97, 5-((3-(1-Methyl-2-oxo-1,2-dihydropyridin-4-yl)-1H-indazol-5-yl)amino)-5,6,7,8-tetrahydronaphthalene-2-carbonitrile] | < 100 nM | 100 to 1000 nM |
| N#Cc1ccc2c(c1)CCC[C@@H]2Nc1ccc2[nH]nc(-c3cccnc3)c2c1 (single isomer, unassigned) [Example 98, 5-((3-(Pyridin-3-yl)-1H-indazol-5-yl)amino)-5,6,7,8-tetrahydronaphthalene-2-carbonitrile] | < 100 nM | < 100 nM |
| C/C=C\c1n[nH]c2ccc(N[C@H]3CCCc4cc(C#N)ccc43)cc12 (single isomer, unassigned) [Example 99, (Z)-5-((3-(Prop-1-en-1-yl)-1H-indazol-5-yl)amino)-5,6,7,8-tetrahydronaphthalene-2-carbonitrile] | < 100 nM | 100 to 1000 nM |
| Cc1cncc(-c2n[nH]c3ccc(N[C@H]4CCCc5cc(C#N)ccc54)cc23)c1 (single isomer, unassigned) [Example 100, 5-((3-(5-Methylpyridin-3-yl)-1H-indazol-5-yl)amino)-5,6,7,8-tetrahydronaphthalene-2-carbonitrile] | < 100 nM | < 100 nM |
| COc1c(C#N)ccc2c1CCC[C@@H]2Nc1ccc2[nH]nc(-c3cnco3)c2c1 (single isomer, unassigned) [Example 101, enantiomer 1, 1-Methoxy-5-{[3-(1,3-oxazol-5-yl)-1H-indazol-5-yl]amino}-5,6,7,8-tetrahydronaphthalene-2-carbonitrile] | < 100 nM | < 100 nM |
| COc1nc2c(cc1C#N)CCC[C@@H]2Nc1ccc2[nH]nc(-c3cnco3)c2c1 (single isomer, unassigned) [Example 102, enantiomer 1, 2-Methoxy-8-((3-(oxazol-5-yl)-1H-indazol-5-yl)amino)-5,6,7,8-tetrahydroquinoline-3-carbonitrile] | < 100 nM | < 100 nM |
| COc1nc2c(cc1C#N)CCC[C@@H]2Nc1ccc2[nH]nc(-c3cnco3)c2c1 (single isomer, unassigned) [Example 102, enantiomer 2, 2-Methoxy-8-((3-(oxazol-5-yl)-1H-indazol-5-yl)amino)-5,6,7,8-tetrahydroquinoline-3-carbonitrile] | 100 to 1000 nM | 1000 to 10000 nM |
| N#Cc1cnc2c(c1)CC[C@@H]2Oc1ccc2[nH]nc(-c3cnco3)c2c1 (single isomer, unassigned) [Example 103, enantiomer 1, 7-((3-(Oxazol-5-yl)-1H-indazol-5-yl)oxy)-6,7-dihydro-5H-cyclopenta[b]pyridine-3-carbonitrile] | < 100 nM | < 100 nM |
| N#Cc1ccc2c(c1)CCCC[C@@H]2Nc1ccc2[nH]nc(-c3cnco3)c2c1 (single isomer, unassigned) [Example 104, enantiomer 1, 5-((3-(Oxazol-5-yl)-1H-indazol-5-yl)amino)-6,7,8,9-tetrahydro-5H-benzo[7]annulene-2-carbonitrile] | < 100 nM | < 100 nM |
| N#Cc1ccc2c(c1)CCCC[C@@H]2Nc1ccc2[nH]nc(-c3cnco3)c2c1 (single isomer, unassigned) [Example 104, enantiomer 2, 5-((3-(Oxazol-5-yl)-1H-indazol-5-yl)amino)-6,7,8,9-tetrahydro-5H-benzo[7]annulene-2-carbonitrile] | 100 to 1000 nM | 100 to 1000 nM |
| CC1(C)C[C@H](Nc2ccc3[nH]nc(-c4cnco4)c3c2)c2ccc(C#N)cc21 (single isomer, unassigned) [Example 105, enantiomer 1, 3,3-Dimethyl-1-((3-(oxazol-5-yl)-1H-indazol-5-yl)amino)-2,3-dihydro-1H-indene-5-carbonitrile] | < 100 nM | 100 to 1000 nM |
| CC1(C)C[C@H](Nc2ccc3[nH]nc(-c4cnco4)c3c2)c2ccc(C#N)cc21 (single isomer, unassigned) [Example 105, enantiomer 2, 3,3-Dimethyl-1-((3-(oxazol-5-yl)-1H-indazol-5-yl)amino)-2,3-dihydro-1H-indene-5-carbonitrile] | < 100 nM | 100 to 1000 nM |
| Cc1nc2c(cc1C#N)CCC[C@@H]2Nc1ccc2[nH]nc(-c3cnco3)c2c1 (single isomer, unassigned) [Example 106, enantiomer 1, 2-Methyl-8-((3-(oxazol-5-yl)-1H-indazol-5-yl)amino)-5,6,7,8-tetrahydroquinoline-3-carbonitrile] | < 100 nM | 100 to 1000 nM |
| Cc1c(C#N)cnc2c1CC[C@@H]2Oc1ccc2[nH]nc(-c3cnco3)c2c1 (single isomer, unassigned) [Example 107, enantiomer 1, 4-Methyl-7-((3-(oxazol-5-yl)-1H-indazol-5-yl)oxy)-6,7-dihydro-5H-cyclopenta[b]pyridine-3-carbonitrile] | < 100 nM | < 100 nM |
| Cc1c(C#N)cnc2c1CC[C@@H]2Oc1ccc2[nH]nc(-c3cnco3)c2c1 (single isomer, unassigned) [Example 107, enantiomer 2, 4-Methyl-7-((3-(oxazol-5-yl)-1H-indazol-5-yl)oxy)-6,7-dihydro-5H-cyclopenta[b]pyridine-3-carbonitrile] | < 100 nM | 100 to 1000 nM |
| Cc1c(C#N)cnc2c1CC[C@@H]2Nc1ccc2[nH]nc(-c3cnco3)c2c1 (single isomer, unassigned) [Example 108, enantiomer 1, 4-Methyl-7-((3-(oxazol-5-yl)-1H-indazol-5-yl)amino)-6,7-dihydro-5H-cyclopenta[b]pyridine-3-carbonitrile] | < 100 nM | 100 to 1000 nM |
| N#Cc1cnc2c(c1)CC[C@@H]2Nc1ccc2[nH]nc(-c3cnco3)c2c1 (single isomer, unassigned) [Example 109, enantiomer 1, 7-((3-(Oxazol-5-yl)-1H-indazol-5-yl)amino)-6,7-dihydro-5H-cyclopenta[b]pyridine-3-carbonitrile] | < 100 nM | < 100 nM |
| N#Cc1cnc2c(c1)CC[C@@H]2Nc1ccc2[nH]nc(-c3cnco3)c2c1 (single isomer, unassigned) [Example 109, enantiomer 2, 7-((3-(Oxazol-5-yl)-1H-indazol-5-yl)amino)-6,7-dihydro-5H-cyclopenta[b]pyridine-3-carbonitrile] | < 100 nM | 100 to 1000 nM |
| Cc1cc2c(cc1C#N)CCC[C@@H]2Nc1ccc2[nH]nc(-c3cnco3)c2c1 (single isomer, unassigned) [Example 110, enantiomer 1, 3-Methyl-5-((3-(oxazol-5-yl)-1H-indazol-5-yl)amino)-5,6,7,8-tetrahydronaphthalene-2-carbonitrile] | < 100 nM | < 100 nM |
| Cc1cc2c(cc1C#N)CCC[C@@H]2Nc1ccc2[nH]nc(-c3cnco3)c2c1 (single isomer, unassigned) [Example 110, enantiomer 2, 3-Methyl-5-((3-(oxazol-5-yl)-1H-indazol-5-yl)amino)-5,6,7,8-tetrahydronaphthalene-2-carbonitrile] | < 100 nM | 100 to 1000 nM |
| CN(c1ccc2[nH]nc(-c3cnco3)c2c1)[C@H]1CCc2cc(C#N)ccc21 (single isomer, unassigned) [Example 111, enantiomer 1, 1-(Methyl(3-(oxazol-5-yl)-1H-indazol-5-yl)amino)-2,3-dihydro-1H-indene-5-carbonitrile] | < 100 nM | < 100 nM |
| CN(c1ccc2[nH]nc(-c3cnco3)c2c1)[C@H]1CCc2cc(C#N)ccc21 (single isomer, unassigned) [Example 111, enantiomer 2, 1-(Methyl(3-(oxazol-5-yl)-1H-indazol-5-yl)amino)-2,3-dihydro-1H-indene-5-carbonitrile] | < 100 nM | 100 to 1000 nM |
| N#Cc1cc2c(nc1Cl)[C@@H](Nc1ccc3[nH]nc(-c4cnco4)c3c1)CCC2 (single isomer, unassigned) [Example 112, enantiomer 1, 2-Chloro-8-((3-(oxazol-5-yl)-1H-indazol-5-yl)amino)-5,6,7,8-tetrahydroquinoline-3-carbonitrile] | < 100 nM | 100 to 1000 nM |
| COc1c(C#N)ccc2c1CC[C@@H]2Nc1ccc2[nH]nc(-c3cnco3)c2c1 (single isomer, unassigned) [Example 113, enantiomer 1, 4-Methoxy-1-((3-(oxazol-5-yl)-1H-indazol-5-yl)amino)-2,3-dihydro-1H-indene-5-carbonitrile] | < 100 nM | < 100 nM |
| COc1cc2c(cc1C#N)CCC[C@@H]2Nc1ccc2[nH]nc(-c3cnoc3)c2c1 (single isomer, unassigned) [Example 114, enantiomer 1, 5-((3-(Isoxazol-4-yl)-1H-indazol-5-yl)amino)-3-methoxy-5,6,7,8-tetrahydronaphthalene-2-carbonitrile] | 100 to 1000 nM | 100 to 1000 nM |
